Assay results: publication PMC10090470 (Parasitology, 2023)
Read-outs that look alike come from different tables or passages of the source.

Key:
[1] = in vitro; type: cell-based; conditions: mouse
Experimental: L929 culture cells were seeded in 96-well plates with 4 × 10^3 cells per well and sustained in RPMI medium supplemented with 10% FBS. The compounds were added (0–400 μM, serially diluted 1:2) and the non-infected cultures incubated for 96 h at 37°C/5% CO2. Then, their viability was assessed by Alamar Blue reagent following the manufacturer's specifications. Controls were carried out with parasites kept under the same conditions in the absence of the compounds.

[2] = system: bloodstream trypomastigote forms of Trypanosoma cruzi (Y strain, DTU II); assay: In vitro activity against bloodstream trypomastigotes (Y strain); type: cell-based; conditions: 95% confidence interval in brackets
Experimental: Trypomastigote forms were incubated in 96-well microplates. Briefly, 100 μL of a BT suspension (in RPMI medium + 5% FBS) containing 10^7 parasites mL^−1 was added to the same volume of each compound diluted in RPMI + 5% FBS at twice of the desired final concentration (0–50 μM, serially diluted 1:2). After 2 and 24 h at 37°C, the number of live parasites was determined by light microscope quantification using a Neubauer chamber. Controls were carried out with parasites kept under the same conditions in the absence of the compounds. BZ was run in parallel.

[3] = system: intracellular forms of Trypanosoma cruzi (Tulahuen strain, DTU VI); assay: In vitro activity against intracellular forms of T. cruzi (Tulahuen strain, β-galactosidase) in L929 cells; type: cell-based; conditions: for Selectivity index (IC50/EC50): SI = LC50 (L929) / EC50 (intracellular forms); for EC90 / EC50: Tulahuen strain in L929 cells, 96 h, 95% confidence interval in brackets; for EC90: read-out: Activity against intracellular forms of the parasite EC90; for EC50: read-out: Activity against intracellular forms of the parasite EC50
Experimental: L929 cells were infected with trypomastigotes obtained from the supernatant of infected cultures. After 2 h of interaction (10 parasites per host cell), the parasites which were not internalized were removed by replacing the RPMI medium. After 48 h of incubation, the compounds were added to the infected cultures (0–10 μM, serially diluted 1:2) and the cultures incubated for 96 h at 37°C/5% CO2. BZ and DMSO (solvent used for the compounds) were run in parallel as positive and negative controls, respectively. After the elapsed time, 50 μL per well of chlorophenol red-β-D-galactopyranoside was added and a reading was done in a spectrophotometer at 570 nm (Romanha et al., [2010]).

[4] = system: bloodstream trypomastigote forms of Trypanosoma cruzi (Y strain, DTU II); conditions: ref Simões-Silva et al. (2019), cited from earlier work; for EC50: read-out: Activity against bloodstream trypomastigotes EC50; for EC50 / EC90: Y strain; for EC90: read-out: Activity against bloodstream trypomastigotes EC90
[5] = system: intracellular forms of Trypanosoma cruzi (Tulahuen strain, DTU VI); conditions: read-out: Activity against intracellular forms of the parasite EC50, ± S.D., ref Simões-Silva et al. (2019); cited from earlier work
[6] = system: L929 cells; design: method as in Simões-Silva et al. (2019); conditions: ± S.D., ref Simões-Silva et al. (2019), read-out: Toxicity against L929 cells LC50; cited from earlier work
[7] = Trypanosoma cruzi, TULAHUEN, L929, 96 h

Row | SMILES | CC50 at 96 h [1] | EC50 ([2]; Trypanosoma cruzi, 2 h) | EC90 ([2]; Trypanosoma cruzi, 2 h) | EC50 ([2]; Trypanosoma cruzi, 24 h) | EC90 ([2]; Trypanosoma cruzi, 24 h) | Selectivity index (IC50/EC50) [3] | EC90 [3, 7] | EC50 ([3]; Trypanosoma cruzi) | EC90 ([2]; 24 h) | EC90 [3] | activity against bloodstream trypomastigotes in words ([4]; after 2 h of drug exposure) | EC50 ([4]; 2 h) | EC50 ([4]; 24 h, ± S.D.) | EC90 ([4]; 2 h) | EC90 ([4]; 24 h, ± S.D.) | EC50 [5] | CC50 [6]
1 | Cc1ccc(CC(=O)c2ccc(Br)cc2OCCCCn2ccnc2)cc1Nc1nccc(-c2cccnc2)n1 [LS2/128] | 17.9 µM | 5.93 µM | 8.93 µM | 4.12 µM | 5.69 µM | 4.22 | > 10 µM | 4.25 µM | – | – | – | – | – | – | – | – | –
2 | Cc1ccc(CC(=O)c2ccc([N+](=O)[O-])c(OCCCCn3ccnc3)c2)cc1Nc1nccc(-c2cccnc2)n1 [LS2/130] | – | 5.69 µM | 7.31 µM | 3.4 µM | 4.8 µM | 4.84 | 9.44 µM | 1.05 µM | – | – | – | – | – | – | – | – | –
3 | COc1cc(C(=O)Cc2ccc(C)c(Nc3nccc(-c4cccnc4)n3)c2)ccc1OCCCCn1ccnc1 [LS2/122] | 5.44 µM | 11.1 µM | 22.1 µM | 3.27 µM | 5.34 µM | 1.22 | > 10 µM | 4.47 µM | – | – | – | – | – | – | – | – | –
4 | Cc1ccc(CC(=O)c2cccc(OCCCCn3ccnc3)c2)cc1Nc1nccc(-c2cccnc2)n1 [LS2/97] | 19.3 µM | 7.84 µM | 11.4 µM | 4.72 µM | 8.52 µM | 14.81 | > 10 µM | 1.3 µM | – | – | – | – | – | – | – | – | –
5 | Cc1ccc(CC(=O)c2ccc(OCCCCn3ccnc3)c(Br)c2)cc1Nc1nccc(-c2cccnc2)n1 [LS2/89] | 12.3 µM | 4.83 µM | 8.12 µM | 2.67 µM | 4.9 µM | 64.74 | 1.6 µM | 0.19 µM | 4.93 µM | 1.68 µM | – | – | – | – | – | – | –
6 | Cc1ccc(CC(=O)c2ccccc2OCCCCn2ccnc2)cc1Nc1nccc(-c2cccnc2)n1 [LS2/98] | 12.2 µM | > 50 µM | > 50 µM | 9.59 µM | 22 µM | 3.93 | > 10 µM | 3.31 µM | – | – | – | – | – | – | – | – | –
7 | COc1ccc(C(=O)Cc2ccc(C)c(Nc3nccc(-c4cccnc4)n3)c2)cc1OCCCCn1ccnc1 [LS2/116] | 5.13 µM | 12 µM | 28.1 µM | 3.89 µM | 7.09 µM | 3.49 | > 10 µM | 1.47 µM | – | – | – | – | – | – | – | – | –
8 | O=C(Cn1ccnc1[N+](=O)[O-])NCc1ccccc1 [BZ, benznidazole] | – | – | – | – | – | – | – | – | – | – | completely inactive | > 50 µM | 14.4 ± 3.4 µM | > 50 µM | 22.8 ± 7.8 µM | 4.1 ± 1.3 µM | > 400 µM
